Reference: patent US20070178544A1, “Anti fk778antibodies and high sensitive immunoassay methods” (priority 2004, published 2007)

Experiment: Selection of an immunogen: titer of antibody in sera of immunized mice
Assay type: in vivo
Conditions: immunogen conjugated with bovine thyroglobulin, with FCA, Balb/c mice; four (FR267471, FR266831) or seven (FR270531) immunizations
Experimental: To obtain the selective antibody against FK778, two kinds of immunogens which were conjugated (FR267471 and FR266831) with bovine thyroglobulin (Sigma-Aldrich Corp.) mixed with Freund's complete adjuvant (FCA) (Difco) were immunized in hyperimmune Balb/c mice. After four times immunizations, the titer of antibody against the FR267471-BSA or the FR266831-BSA in sera was measured by enzyme-linked immunosorbent assay. […] To obtain immunogens having higher titer than the two immunogens, another type of immunogen FR270531 was synthesized. […] Accordingly, the present inventors have used FR270531 as an immunogen to produce antibodies directed to FK778, and FR267471 and FR266831 as positive and negative control to select the FK778 antibody specifically binding to the FK778 substance.

| SMILES | titer of antibody in sera |
| --- | --- |
| C#CCC/C(O)=C(\C#N)C(=O)Nc1ccc(OCCCCCC(=O)O)cc1 [FR267471, 6-(4-{[(2Z)-2-cyano-3-hydroxy-2-hepten-6-ynoyl]amino}phenoxy)hexanoic acid] | not sufficient |
| C#CCC/C(O)=C(\C#N)C(=O)Nc1ccc(OCCCCCC(=O)Oc2c(F)c(F)c(F)c(F)c2F)cc1 [FR270531, pentafluorophenyl 6-(4-{[(2Z)-2-cyano-3-hydroxy-2-hepten-6-ynoyl]amino}phenoxy)hexanoate] | higher than those of FR267471 and FR266831 |
| N#C/C(C(=O)Nc1ccc(C(F)(F)F)cc1)=C(/O)CCCC(=O)O [FR266831, (5Z)-6-cyano-5-hydroxy-7-oxo-7-{[4-(trifluoromethyl)phenyl]amino}-5-heptenoic acid] | not sufficient |
